Measured values published in patent US12509451B2, “Heteroaryl amide inhibitors of CD38” (NAPA THERAPEUTICS LTD., priority 2020, dated 2025).
Each block holds one compound with its values, some of them ahead of it.

Legend:
[1] = molecular target: T1, recombinant mouse CD38 Protein (Mus musculus, UniProt P56528); test: Fluorescence-based NAD+ hydrolase activity assay with mouse recombinant CD38 protein (Assay 5); type: biochemical; settings: read-out: Assay 5 Arithmetic mean IC50
T1 construct: purchased R&D System
T1 sequence (P56528 1-304): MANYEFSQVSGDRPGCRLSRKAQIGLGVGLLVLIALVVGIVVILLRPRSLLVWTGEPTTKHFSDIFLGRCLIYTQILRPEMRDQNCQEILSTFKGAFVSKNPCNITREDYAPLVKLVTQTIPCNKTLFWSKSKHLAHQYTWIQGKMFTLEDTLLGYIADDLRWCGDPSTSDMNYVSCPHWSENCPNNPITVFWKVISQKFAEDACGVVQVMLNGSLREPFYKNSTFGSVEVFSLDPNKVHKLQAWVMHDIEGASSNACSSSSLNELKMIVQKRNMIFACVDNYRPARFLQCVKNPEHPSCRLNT
Protocol: This protocol was modified from the following references: Muller et al. (1983); Schultz et al. (2018); Matalonga et al. (2017); and de Oliveira et al. (2018), supra.
NAD+ hydrolase activity of the mouse recombinant CD38 protein treated with test compounds was measured using a fluorescence-based assay. Briefly, recombinant mouse CD38 Protein (R&D System) was resuspended in 44 μl/well of Sucrose-Tris Buffer (Sucrose 0.25 M, Tris pH 7.4 40 mM) and plated in a 96 well black plate (CORNING) at a density of 2.5 ng/well.
(§1) Each test compound was received in a powder state and dissolved in DMSO as a 25 mM stock solution. Each test compound was serially diluted in order to generate a dose-response curve. The dilution series of each test compound in DMSO was prepared at 50 times the concentrations to be assayed. Each test compound was diluted to generate a 5-fold dilution series of 8 concentrations from 20 μM to 0.256 nM in order to assay 8 final concentrations ranging from 400 nM to 25.6 pM. One μl of the 50× concentration compound series was added to each well of the plate containing 2.5 ng of protein in Sucrose-Tris buffer.
Each plate had the following intra plate controls: 3 wells containing cells treated with vehicle only (DMSO), 3 wells of cells treated with the reference compounds 78c at a final concentration of 50 nM and 2 wells containing only Sucrose-Tris buffer (used as a background value).
(§2) The reaction was started adding nicotinamide 1,N^6-etheno-adenine dinucleotide (Sigma Aldrich) to reach a final concentration of 80 µM. The samples were excited at 321-15 nm and the emission of fluorescence was measured at 410-20 nm at 37° C. every minute for 1 hr in a Clariostar Microplate® reader (BMG LABTECH). NAD+ hydrolase activity was calculated as the slope of the linear portion of the fluorescence-time curve using the MARS data analysis software (BMG LABTECH). The data were uploaded in the Collaborative Drug Design (CDD) Software and for each compound the IC50 was calculated by the software. Each compound was tested in 3 independent experiments on 3 separate days to establish the reproducibility of the results. For each plate, the z-factor was also calculated as a plate quality using the CDD software.

[2] = molecular target: T2, CD38 NAD+ hydrolase activity in NH7-dCas9 cells (Jurkat clone) (Homo sapiens, UniProt P28907); test: Fluorescence-based NAD+ hydrolase activity assay with human T cell line NH7-dCas9 cells-Jurkat clone (Assay 1); settings: read-out: Assay 1 Arithmetic mean IC50
T2 construct: The assay utilized CD38 expressing NH7-dCas9 cells (Jurkat clone); host or cells: NH7-dCas9 cells (Jurkat clone)
T2 sequence (P28907 1-300): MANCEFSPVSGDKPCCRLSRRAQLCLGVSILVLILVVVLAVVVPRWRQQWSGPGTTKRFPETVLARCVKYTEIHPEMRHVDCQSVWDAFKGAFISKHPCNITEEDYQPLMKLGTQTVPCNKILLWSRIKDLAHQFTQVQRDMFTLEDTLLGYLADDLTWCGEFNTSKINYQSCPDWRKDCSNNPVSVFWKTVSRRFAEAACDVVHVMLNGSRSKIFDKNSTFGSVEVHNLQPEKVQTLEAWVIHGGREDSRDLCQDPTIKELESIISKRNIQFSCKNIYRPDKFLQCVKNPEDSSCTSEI
Protocol: For the modified assay, the performance validation criteria of the assay as a High Throughput Screening (HTS): Z-factor within the plate was greater than 0.89 (optimal HTS z-factor >0.5) and the Intra-plate, inter-plate and day to day variability (CV) was less than 20%.
NAD+ hydrolase activity of a human T cell line treated with test compounds was measured using a fluorescence-based assay. NH7-dCas9 cells (Jurkat clone) were provided by the Weissman Lab (UCSF 1700 4th St., Byers Hall, Room 403B, San Francisco, CA 94158-2330). Briefly, cells were centrifuged, resuspended in 44 μl PBS/10^6 cells and plated in a 96 well black plate (CORNING) at a density of 1×10^6 per well.
as §1, with “1×10^6 cells” for “2.5 ng of protein”, “PBS.” for “Sucrose-Tris buffer.”
Each plate had the following intra plate controls: 3 wells containing cells treated with vehicle only (DMSO), 3 wells of cells treated with the reference compound 78c at a final concentration of 50 nM and 2 wells containing only PBS (used as a background value).
as §2, with “started by” for “started”, “321-15 nm,” for “321-15 nm”, “a Clariostar® microplate” for “a Clariostar Microplate®”

SMILES: CNC(=O)c1ccc(NC(=O)c2cccc(-n3ccnc3)n2)cn1 [Compound 2]
IC50 [1]: < 1 nM
IC50 [2]: < 1 nM

SMILES: NC(=O)c1ccc(NC(=O)c2cccc(-n3ccnc3)n2)cn1 [Compound 3]
IC50 [1]: 1 to 50 nM
IC50 [2]: < 1 nM

SMILES: Cc1cc(NC(=O)c2cccc(-n3ccnc3)n2)cc(C)n1 [Compound 7]
IC50 [1]: < 1 nM
IC50 [2]: < 1 nM

SMILES: O=C(Nc1ccnc(F)c1)c1cccc(-n2ccnc2)n1 [Compound 8]
IC50 [1]: 1 to 50 nM
IC50 [2]: < 1 nM

SMILES: O=C(Nc1ccc(C(F)(F)F)nc1)c1cccc(-n2ccnc2)n1 [Compound 9]
IC50 [1]: 1 to 50 nM
IC50 [2]: 1 to 50 nM

SMILES: Cc1cc(NC(=O)c2cccc(-n3ccnc3)n2)ccn1 [Compound 11]
IC50 [1]: 1 to 50 nM
IC50 [2]: 1 to 50 nM

SMILES: COc1cc(NC(=O)c2cccc(-n3ccnc3)n2)ccn1 [Compound 12]
IC50 [1]: 1 to 50 nM
IC50 [2]: 1 to 50 nM

SMILES: O=C(Nc1ccncc1)c1cccc(-n2ccnc2)n1 [Compound 13]
IC50 [1]: 1 to 50 nM
IC50 [2]: 1 to 50 nM

SMILES: Cc1ccc(NC(=O)c2cccc(-n3ccnc3)n2)cn1 [Compound 14]
IC50 [1]: 1 to 50 nM
IC50 [2]: 1 to 50 nM

SMILES: CC(=O)N(C)c1ccc(NC(=O)c2cccc(-n3ccnc3)n2)cn1 [Compound 15]
IC50 [1]: 1 to 50 nM
IC50 [2]: 1 to 50 nM

SMILES: CC(=O)Nc1ccc(NC(=O)c2cccc(-n3ccnc3)n2)cn1 [Compound 16]
IC50 [1]: 1 to 50 nM
IC50 [2]: 1 to 50 nM

SMILES: COc1ccc(NC(=O)c2cccc(-n3ccnc3)n2)cn1 [Compound 18]
IC50 [1]: 1 to 50 nM
IC50 [2]: 1 to 50 nM

SMILES: O=C(Nc1cccnc1)c1cccc(-n2ccnc2)n1 [Compound 20]
IC50 [1]: 1 to 50 nM
IC50 [2]: 1 to 50 nM

Other lines, results leading:

IC50 [1]: 1 to 50 nM
IC50 [2]: 1 to 50 nM
SMILES: O=C(Nc1ccc(F)nc1)c1cccc(-n2ccnc2)n1 [Compound 22]

IC50 [1]: 1 to 50 nM
IC50 [2]: 1 to 50 nM
SMILES: O=C(Nc1ccncn1)c1cccc(-n2ccnc2)n1 [Compound 24]

IC50 [1]: 1 to 50 nM
IC50 [2]: 1 to 50 nM
SMILES: COC(=O)c1ccc(NC(=O)c2cccc(-n3ccnc3)n2)cn1 [Compound 27]

IC50 [1]: 1 to 50 nM
IC50 [2]: < 1 nM
SMILES: O=C(Nc1ccnc(C(F)(F)F)c1)c1cccc(-n2ccnc2)n1 [Compound 28]

IC50 [1]: < 1 nM
IC50 [2]: < 1 nM
SMILES: O=C(Nc1ccnc(C(F)(F)F)c1)c1cc(OCc2ccccc2)cc(-n2ccnc2)n1 [Compound 29, 4-(benzyloxy)-6-(1H-imidazol-1-yl)-N-[2-(trifluoromethyl)pyridin-4-yl]pyridine-2-carboxamide]

IC50 [1]: < 1 nM
IC50 [2]: < 1 nM
SMILES: O=C(Nc1ccnc(C(F)(F)F)c1)c1cc(OCC2CCOCC2)cc(-n2ccnc2)n1 [Compound 30, 6-(1H-imidazol-1-yl)-4-((tetrahydro-2H-pyran-4-yl)methoxy)-N-(2-(trifluoromethyl)pyridin-4-yl)picolinamide]

IC50 [1]: < 1 nM
IC50 [2]: < 1 nM
SMILES: COCCOc1cc(C(=O)Nc2ccnc(C(F)(F)F)c2)nc(-n2ccnc2)c1 [Compound 31, 6-(1H-imidazol-1-yl)-4-(2-methoxyethoxy)-N-(2-(trifluoromethyl)pyridin-4-yl)picolinamide]

IC50 [1]: 51 to 1000 nM
IC50 [2]: < 1 nM
SMILES: O=C(Nc1ccnc(C(F)(F)F)c1)c1cc(OC2CC2)cc(-n2ccnc2)n1 [Compound 32, 4-cyclopropoxy-6-(1H-imidazol-1-yl)-N-(2-(trifluoromethyl)pyridin-4-yl)picolinamide]

IC50 [1]: < 1 nM
IC50 [2]: < 1 nM
SMILES: CN(C)CCOc1cc(C(=O)Nc2ccnc(C(F)(F)F)c2)nc(-n2ccnc2)c1 [Compound 33]

IC50 [1]: < 1 nM
SMILES: CC1(Oc2cc(C(=O)Nc3ccnc(C(F)(F)F)c3)nc(-n3ccnc3)c2)COC1 [Compound 34, 6-(1H-imidazol-1-yl)-4-((3-methyloxetan-3-yl)oxy)-N-(2-(trifluoromethyl)pyridin-4-yl)picolinamide]

IC50 [1]: < 1 nM
SMILES: O=C(Nc1ccnc(C(F)(F)F)c1)c1cc(OC2CC2)nc(-n2ccnc2)n1 [Compound 40]

IC50 [1]: < 1 nM
SMILES: O=C(Nc1ccnc(C(F)(F)F)c1)c1cc(C2CC2)nc(-n2ccnc2)n1 [Compound 51, 6-cyclopropyl-2-(1H-imidazol-1-yl)-N-(2-(trifluoromethyl)pyridin-4-yl)pyrimidine-4-carboxamide]
